In patent US20230303540A1 (Merck Sharp & Dohme LLC, priority 2020, published 2023):

Molecular target: GST-tagged truncated human mutant G2019S LRRK2 (Homo sapiens, UniProt Q5S007, G2019S)
Experiment: LRRK2 G2019S Km ATP LanthaScreen assay
Type: biochemical
Conditions: 134 μM ATP (Km ATP), LRRKtide substrate, mean IC50 values; read-out: LRRK2 pIC50 (converted)
Description: Unless otherwise noted, all reactions are magnetically stirred. Unless otherwise noted, when diethyl ether is used in the experiments described below, it is Fisher ACS certified material and is stabilized with BHT. Unless otherwise noted, “concentrated” and/or “solvent removed under reduced pressure” means evaporating the solvent from a solution or mixture using a rotary evaporator or vacuum pump. Unless otherwise noted, flash chromatography is carried out on a Teledyne Isco (Lincoln, NE), Analogix (Burlington, WI), or Biotage (Stockholm, SWE) automated chromatography system using a commercially available cartridge as the column. Columns may be purchased from Teledyne Isco, Analogix, Biotage, Varian (Palo Alto, CA), or Supelco (Bellefonte, PA) and are usually filled with silica gel as the stationary phase. Reverse phase prep-HPLC conditions, where used, can be found at the end of each experimental section. Aqueous solutions were concentrated on a Genevac (Ipswich, ENG) or by freeze-drying/lyophilization. Unless otherwise noted, all LRRK2 pIC50 data presented in tables refers to the LRRK2 G2019S Km ATP LanthaScreen™ assay (Life Technologies Corp., Carlsbad, CA) that is described in the Biological Assay section.
The IC50 values reported herein were measured as follows.
Biological Assay: LRRK2 Km ATP LanthaScreen™ Assay
The LRRK2 kinase activity reported herein as IC50 values was determined with LanthaScreen™ technology from Life Technologies Corporation (Carlsbad, CA) using GST-tagged truncated human mutant G2019S LRRK2 in the presence of the fluorescein-labeled peptide substrate LRRKtide, also from Life Technologies. The data presented for the Km ATP LanthaScreen™ Assay represents mean IC50 values based on several test results and may have reasonable deviations depending on the specific conditions and reagents used. Assays were performed in the presence of 134 μM ATP (Km ATP). Upon completion, the assay was stopped and phosphorylated substrate detected with a terbium (Tb)-labeled anti-pERM antibody (cat. no. PV4898). The compound dose response was prepared by diluting a 10 mM stock of compound to a maximum concentration of 9.99 μM in 100% dimethylsulfoxide followed by custom fold serial dilution in dimethylsulfoxide nine times. Twenty nanoliters of each dilution was spotted via a Labcyte Echo onto a 384-well black-sided plate (Corning 3575) followed by 15 μl of a 1.25 nM enzyme solution in 1× assay buffer (50 mM Tris pH 8.5, 10 mM MgCl2, 0.01% Brij-35, 1 mM EGTA, 2 mM dithiothreitol, 0.05 mM sodium orthovanadate). Following a 15-minute incubation at room temperature, the kinase reaction was started with the addition of 5 μl of 400 nM fluorescein-labeled LRRKtide peptide substrate and 134 μM ATP solution in 1× assay buffer. The reaction was allowed to progress at ambient temperature for 90 minutes. The reaction was then stopped by the addition of 20 μl of TR-FRET Dilution Buffer (Life Technologies, Carlsbad, CA) containing 2 nM Tb-labeled anti-phospho LRRKtide antibody and 10 mM EDTA (Life Technologies, Carlsbad, CA). After an incubation of 1 hour at room temperature, the plate was read on an EnVision multimode plate reader (Perkin Elmer, Waltham, MA) with an excitation wavelength of 337 nm (Laser) and a reading emission at both 520 and 495 nm. Compound IC50s were interpolated from nonlinear regression best fits of the log of the final compound concentration, plotted as a function of the 520/495-nm emission ratio using Activity base. Abase uses a 4 parameter (4P) logistic fit based on the Levenberg-Marquardt algorithm.

Molecule `Cc1cc2cnc(Nc3cnn(C4CC4(F)F)c3Cl)nc2cc1N1CCN(C2(C)COCC2O)CC1` (single isomer, unassigned) [Ex-5.5, (3S,4S) or (3R,4R) 4-(4-(2-((5-chloro-1-(2,2-(R) or (S)difluorocyclopropyl)-1H-pyrazol-4-yl)amino)-6-methylquinazolin-7-yl)piperazin-1-yl)-4-methyltetrahydrofuran-3-ol] has an IC50 of 0.42 nM.

`O[C@@H]1COC[C@@H]1N1CCN(c2nc3nc(Nc4cnn(C5CC5)c4Cl)ncc3cc2Cl)CC1` (single isomer, unassigned) [Ex-16.1, (3S,4S) or (3R, 4R)-4-(4-(6-Chloro-2-((5-chloro-1-cyclopropyl-1H-pyrazol-4-yl)amino)pyrido[2,3-d]pyrimidin-7-yl)piperazin-1-yl)tetrahydrofuran-3-ol] showed an IC50 of 15.6 nM.

`CC(C)(O)Cn1ncc(Nc2ncc3cc(Cl)c(N4C[C@H]5CC[C@@H](C4)[C@@]5(C)O)cc3n2)c1Cl` [Ex-3.30, (8-syn)-3-(6-chloro-2-{[5-chloro-1-(2-hydroxy-2-methylpropyl)-1H-pyrazol-4-yl]amino}quinazolin-7-yl)-8-methyl-3-azabicyclo[3.2.1] octan-8-ol] showed an IC50 of 5.09 nM.

In the case of `Cc1cc(Nc2ncc3ccc(N4C(=O)OC[C@@H]4C)cc3n2)n(C)n1` [Ex-8.1, (4S)-3-{2-[(1,3-dimethyl-1H-pyrazol-5-yl)amino]quinazolin-7-yl}-4-methyl-1,3-oxazolidin-2-one], the IC50 is reported as 4.41 nM.

`C[C@]1(O)[C@@H]2CC[C@H]1CN(c1cc3nc(Nc4cnn(C5CC5(F)F)c4Cl)ncc3cc1Cl)C2` (single isomer, unassigned) [Ex-3.41, (R) or (S) (8-syn)-3-(6-chloro-2-{[5-chloro-1-(2,2-difluorocyclopropyl)-1H-pyrazol-4-yl]amino}quinazolin-7-yl)-8-methyl-3-azabicyclo[3.2.1]octan-8-ol] gave an IC50 of 23 nM.

In the case of `COCC12CC(n3cc(Nc4ncc5cc(Cl)c(N6CCC7(CC6)COC(CO)C7)cc5n4)cn3)(C1)C2` (stereo not shown) [Ex-3.15, {8-[6-chloro-2-({1-[3-(methoxymethyl)bicyclo[1.1.1]pentan-1-yl]-1H-pyrazol-4-yl}amino)quinazolin-7-yl]-2-oxa-8-azaspiro [4.5]decan-3-yl}methanol], the IC50 is reported as 0.227 nM.

In the case of `CC1(N2CCN(c3cc4nc(Nc5cnn(C(C)(C)C)c5Cl)ncc4cc3Cl)CC2)COC1` [Ex-4.31, N-(1-tert-butyl-5-chloro-1H-pyrazol-4-yl)-6-chloro-7-[4-(3-methyloxetan-3-yl)piperazin-1-yl]quinazolin-2-amine], the IC50 is reported as 1.01 nM.

`CCn1ncc(Nc2ncc3cc(Cl)c(N4CCC(C)(O)CC4)cc3n2)c1F` [Ex-6.3, 1-{6-chloro-2-[(1-ethyl-5-fluoro-1H-pyrazol-4-yl)amino]quinazolin-7-yl}-4-methylpiperidin-4-ol] gave an IC50 of 10.3 nM.

Work on `Cc1cc2cnc(Nc3cnn(C4(C)CC4)c3Cl)nc2cc1N1CCN(C2(C)COC2)CC1` [Ex-5.9, N-[5-chloro-1-(1-methylcyclopropyl)-1H-pyrazol-4-yl]-6-methyl-7-[4-(3-methyloxetan-3-yl)piperazin-1-yl]quinazolin-2-amine] yielded an IC50 of 0.64 nM.

For `Clc1cc2cnc(Nc3cnn(C4CC4)c3Cl)nc2cc1N1CCN(C2COC2)CC1` [Ex-1.24, 6-chloro-N-(5-chloro-1-cyclopropyl-1H-pyrazol-4-yl)-7-[4-(oxetan-3-yl)piperazin-1-yl]quinazolin-2-amine], the IC50 was 2.59 nM.

`COC1CCC1n1ncc(Nc2ncc3cc(Cl)c(N4CCC(C)(O)CC4)cc3n2)c1C` (single isomer, unassigned) [Ex-6.20, 1-[6-chloro-2-({1-[(1R,2R) or (1S,2S)-2-methoxycyclobutyl]-5-methyl-1H-pyrazol-4-yl}amino)quinazolin-7-yl]-4-methylpiperidin-4-ol] showed an IC50 of 2.53 nM.

With `Clc1cc2cnc(Nc3cnn(C4CC4)c3Cl)nc2cc1N1CCC(N2CCC2)CC1` [Ex-1.28, 7-[4-(azetidin-1-yl)piperidin-1-yl]-6-chloro-N-(5-chloro-1-cyclopropyl-1H-pyrazol-4-yl)quinazolin-2-amine] the IC50 was 3.31 nM.

`OC1COCC12CCN(c1cc3nc(Nc4cnn(C5CC5(F)F)c4Cl)ncc3cc1Cl)CC2` (single isomer, unassigned) [Ex-3.57] was tested, and the IC50 was 23.1 nM.

In the case of `COCC12CC(n3cc(Nc4ncc5cc(Cl)c(N6CCC7(CC6)COC(CO)C7)cc5n4)cn3)(C1)C2` (single isomer, unassigned) [Ex-3.17, (R) or (S)-{8-[6-chloro-2-({1-[3-(methoxymethyl)bicyclo[1.1.1]pentan-1-yl]-1H-pyrazol-4-yl}amino)quinazolin-7-yl]-2-oxa-8-azaspiro[4.5]decan-3-yl}methanol], the IC50 is reported as 2.28 nM.

Molecule `CC1(O)C2CC1CN(c1cc3nc(Nc4cnn(C5CC5)c4Cl)ncc3cc1Cl)C2` (stereo not shown) [Ex-1.41, 3-{6-chloro-2-[(5-chloro-1-cyclopropyl-1H-pyrazol-4-y)amino]quinazolin-7-yl}-6-methyl-3-azabicyclo[3.1.1]heptan-6-ol] has an IC50 of 8.93 nM.

For `OC1COCC12CCN(c1cc3nc(Nc4cnn(C5CC5(F)F)c4Cl)ncc3cc1Cl)CC2` (single isomer, unassigned) [Ex-3.56], the IC50 was 3.56 nM.

Work on `Cc1cc2cnc(Nc3cnn(C4CC4(F)F)c3C)nc2cc1N1CCN(C2(C)COCC2O)CC1` (single isomer, unassigned) [Ex-5.3, (3S,4S) or (3R,4R) 4-(4-(2-((1-(2,2-(R) or (S)difluorocyclopropyl)-5-methyl-1H-pyrazol-4-yl)amino)-6-methylquinazolin-7-yl)piperazin-1-yl)-4-methyltetrahydrofuran-3-ol] yielded an IC50 of 0.31 nM.

`CC1CCN1c1cc2nc(Nc3cnn(C4CCN(C5(C)COC5)CC4)c3)ncc2cc1Cl` (stereo not shown) [Ex-4.11, 6-chloro-7-(2-methylazetidin-1-yl)-N-{1-[1-(3-methyloxetan-3-yl)piperidin-4-yl]-1H-pyrazol-4-yl}quinazolin-2-amine] was tested, and the IC50 was 35.3 nM.

With `Cc1cc2cnc(Nc3cnn(C)c3C)nc2cc1N1CCN([C@]2(C)COC[C@@H]2O)CC1` [Ex-2.1, (3R,4R)-4-(4-(2-((1,5-Dimethyl-1H-pyrazol-4-yl)amino)-6-methylquinazolin-7-yl)piperazin-1-yl)-4-methyltetrahydrofuran-3-ol] the IC50 was 0.576 nM.

With `CC(C)c1cc(Nc2ncc3ccc(N4C(=O)OC[C@@H]4C)cc3n2)ns1` [Ex-8.9, (4S)-4-methyl-3-(2-{[5-(propan-2-yl)-1,2-thiazol-3-yl]amino}quinazolin-7-yl)-1,3-oxazolidin-2-one] the IC50 was 8.03 nM.

`CCn1ncc(Nc2ncc3ccc(N4CCCC4C)cc3n2)c1C` (single isomer, unassigned) [Ex-1.9, (S) or (R) N-(1-ethyl-5-methyl-1H-pyrazol-4-yl)-7-(2-methylpyrrolidin-1-yl)quinazolin-2-amine] showed an IC50 of 36.1 nM.

`Clc1cc2cnc(Nc3cnn(C4CC4)c3Cl)nc2cc1N1C[C@@H]2C[C@H]1CN2C1COC1` [Ex-1.33, 6-chloro-N-(5-chloro-1-cyclopropyl-1H-pyrazol-4-yl)-7-[(1S,4S)-5-(oxetan-3-yl)-2,5-diazabicyclo[2.2.1]heptan-2-yl]quinazolin-2-amine] showed an IC50 of 26.1 nM.

With `CC1(N2CCN(c3cc4nc(Nc5cnn(C6CCC6)c5Cl)ncc4cc3Cl)CC2)COC1` [Ex-4.50, 6-chloro-N-(5-chloro-1-cyclobutyl-1H-pyrazol-4-yl)-7-[4-(3-methyloxetan-3-yl)piperazin-1-yl]quinazolin-2-amine] the IC50 was 4.61 nM.

`OC1CN(c2cc3nc(Nc4cnn(CC(F)F)c4Cl)ncc3cc2Cl)C1` [Ex-1.18, 1-(6-chloro-2-{[5-chloro-1-(2,2-difluoroethyl)-1H-pyrazol-4-yl]amino}quinazolin-7-yl)azetidin-3-ol] was tested, and the IC50 was 18.9 nM.

`CC(C)(C)n1ncc(Nc2ncc3cc(Cl)c(N4CCC(N5CC(F)(F)C5)CC4)cc3n2)c1Cl` [Ex-4.33, N-(1-tert-butyl-5-chloro-1H-pyrazol-4-yl)-6-chloro-7-[4-(3,3-difluoroazetidin-1-yl)piperidin-1-yl]quinazolin-2-amine] gave an IC50 of 4.75 nM.
